The assay in a line: Inhibition of rat intestinal alpha-glucosidase using para-nitrophenyl-alpha-D-glucopyranoside as substrate incubated for 5 min prior to substrate addition measured after 5 min by spectrophotometric analysis.

One may read the IC50 as the concentration needed to halve the response being measured.

SMILES strings stand for the structures.

Turning to `COc1ccc(/C=C/C(=O)c2ccc3occc3c2O)c(OC)c1OC`, 17.3 µM corresponded to half-maximal inhibition (IC50).

Consider `COc1ccc(/C=C/C(=O)c2ccc3occc3c2O)cc1`, for which the IC50 came to 9.2 µM.

Consider `COc1cc(OC)c(OC)cc1/C=C/C(=O)c1cc2ccoc2cc1O`, for which the concentration for half-maximal inhibition (IC50) amounted to 13.4 µM.

As for `O=C(/C=C/c1ccccc1)c1cc2ccoc2cc1O`, the half-maximal inhibitory concentration (IC50) stood at 14.5 µM.

`COc1ccc(/C=C/C(=O)c2cc3ccoc3cc2O)cc1OC` gave a 50% inhibitory concentration (IC50) of 10.8 µM.

Turning to `O=C(/C=C/c1ccc(O)c(O)c1)c1ccc2occc2c1O`, it took 15.2 µM to reach half-maximal inhibition (IC50).

In turn, `COc1ccc(/C=C/C(=O)c2ccc3occc3c2O)cc1OC` came in with an IC50 of 5 µM.

The compound `O=C(/C=C/c1ccc(O)c(O)c1)c1cc2ccoc2cc1O` registered a 50% inhibitory concentration (IC50) of 18.9 µM.

`O=C(/C=C/c1ccc(O)cc1)c1ccc2occc2c1O` displayed a concentration for half-maximal inhibition (IC50) of 10.9 µM.

The values above are taken from BindingDB's records for doi:10.1007/s00044-011-9583-7 (n/a, 2012).
